Results: patent US12564583B2, “Small molecules against cereblon to enhance effector T cell function” (H. LEE MOFFITT CANCER CENTER AND RESEARCH INSTITUTE, INC., priority 2016, dated 2026)

Experiments:
IL-2 = IL-2 relative to DMSO; type: cell-based
[1] = Viability relative to DMSO; type: cell-based; design: concentration or dose not given beside the values
[2] = biological target: thalidomide binding domain (TBD) of cereblon (Homo sapiens, UniProt Q96SW2); assay: Cereblon binding (DSF, FP/FI); settings: for inhibition at 200 µM: read-out: Cereblon Binding (≥50% inhibition at 200 μM)
Method: Several libraries are available for screening inhibitors. Virtual analysis was formulated and then theoretical design of chemical test kit and virtual screen of test kit were carried out. Physical binding studies were also completed for the initial compounds using DSF and FP assays after they are fully tested. TEST KITs that represent the compounds identified from each of the available chemical libraries based on virtual chemical structures were also made.

Sequence of thalidomide binding domain (TBD) of cereblon (Q96SW2 318-426 limits assumed): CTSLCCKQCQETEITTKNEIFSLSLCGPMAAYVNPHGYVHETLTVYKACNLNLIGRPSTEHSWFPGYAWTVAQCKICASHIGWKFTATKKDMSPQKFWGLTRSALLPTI

| Compound | IL-2 (%) (Relative to DMSO) (IL-2) | viability [1] | inhibition at 200 µM [2] | Cereblon Binding (≥50% inhibition at 200 μM) [2] |
| --- | --- | --- | --- | --- |
| Cc1nc2cccc(N)c2c(=O)n1C1CCC(=O)NC1=O (stereo not drawn) | 283.4% | 84.4% | > 50% | – |
| CNc1ccccc1C(=O)NCCn1ccc(=O)[nH]c1=O | 158.7% | 97% | > 50% | – |
| O=C1NC(=O)c2ccccc21 | 110.8% | 92.4% | – | No |
| O=C1CCC(NS(=O)(=O)c2cccc([N+](=O)[O-])c2)C(=O)N1 (stereo not drawn) | 143.7% | 80% | – | Yes* |
| CCNc1cccc(S(=O)(=O)NC2CCC(=O)NC2=O)c1 (stereo not drawn) | 124.4% | 100% | – | Yes* |
| CNc1ccccc1C(=O)NCCN1CCC(=O)NC1=O | 167.5% | 101% | – | Yes* |
| COC(=O)c1ccccc1NC(=O)[C@H](CC(=O)NC1CCC(=O)NC1=O)NC(=O)OC(C)(C)C (stereo partly drawn) | 25.0% | 85.6% | – | Yes* |
| Nc1cc(Cl)ccc1C(=O)NCCN1CCC(=O)NC1=O | 14.1% | 78.7% | – | Yes* |
| O=C1CCC(N2CCc3ccc([N+](=O)[O-])cc3C2)C(=O)N1 (stereo not drawn) | 23.0% | 84.2% | – | Yes* |
| O=C1CCC(N2CCc3ccc(O)cc3C2)C(=O)N1 (stereo not drawn) | 32.2% | 102% | – | Yes* |
| O=C1CCC(N2CCCC(c3ccccc3)C2)C(=O)N1 (stereo not drawn) | 45.3% | 92.1% | – | Yes* |
| O=C1CCC(NCCNC(=O)c2ccccc2)C(=O)N1 (stereo not drawn) | 46.7% | 68.2% | – | Yes* |
| O=C1CCC(=O)N1 | 199.7% | 75.3% | > 50% | – |
| Cn1cncc1C(=O)NC1CCC(=O)NC1=O (stereo not drawn) | 148.0% | 95.3% | > 50% | – |
| O=C1CCC(NCc2ccco2)C(=O)N1 (stereo not drawn) | 136.9% | 95.9% | > 50% | – |
| O=C1CCC(NCc2ccccn2)C(=O)N1 (stereo not drawn) | 7.8% | 84.9% | > 50% | – |

| Compound | IL-2 (%) (Relative to DMSO) (IL-2) | viability [1] | inhibition at 200 µM [2] | Cereblon Binding (≥50% inhibition at 200 μM) [2] |
| --- | --- | --- | --- | --- |
| O=C1CCC(NCc2ccc(N3CCOCC3)cc2)C(=O)N1 (stereo not drawn) | 14.9% | 94.5% | > 50% | – |
| Cc1ccc(C(=O)NC2CCC(=O)NC2=O)o1 (stereo not drawn) | 48.0% | 84.7% | > 50% | – |
| C=CCCCCCCCCC(=O)NC1CCC(=O)NC1=O (stereo not drawn) | 15.6% | 82.3% | > 50% | – |
| Nc1cccc(S(=O)(=O)NC2CCC(=O)NC2=O)c1 (stereo not drawn) | 127.0% | 99.7% | > 50% | – |
| O=C1CCC(NC(=O)CCNS(=O)(=O)c2c(F)cccc2F)C(=O)N1 (stereo not drawn) | 120.1% | 99.4% | > 50% | – |
| O=C(NCCn1ccc(=O)[nH]c1=O)c1ccccc1 | 124.5% | 84.2% | > 50% | – |
| O=C1CCC(NC(=O)CCNS(=O)(=O)c2ccccc2)C(=O)N1 (stereo not drawn) | 32.7% | 77.2% | > 50% | – |
| O=C1CCC(NC(=O)c2ccccc2NC(=O)CCl)C(=O)N1 (stereo not drawn) | 40.3% | 69.9% | > 50% | – |
| O=c1ccn(CCNS(=O)(=O)Cc2ccccc2)c(=O)[nH]1 | 138.2% | 76.7% | > 50% | – |
| Nc1ccc(Cl)cc1C(=O)NCCN1CCC(=O)NC1=O | 20.6% | 78.8% | > 50% | – |
| O=C1CCN(CCNC(=O)c2ccccc2)C(=O)N1 | 47.1% | 84.9% | > 50% | – |
| CCN(Cc1ccccc1)C1CCC(=O)NC1=O (stereo not drawn) | 32.1% | 99.1% | > 50% | – |
| O=C1CCC(NCc2ccccc2)C(=O)N1 (stereo not drawn) | 40.4% | 98% | > 50% | – |
| O=C1CCC(N2CCC(c3ccccc3)CC2)C(=O)N1 (stereo not drawn) | 41.5% | 100% | > 50% | – |
| CN(Cc1ccc2c(c1)OCO2)C1CCC(=O)NC1=O (stereo not drawn) | 43% | 106% | > 50% | – |
